Experimental data published in ChEMBL document CHEMBL1138274, “Discovery of potent and selective adamantane-based small-molecule P2X(7) receptor antagonists/interleukin-1beta inhibitors” (J Med Chem, 2007).
Calls of active or inactive are those of the source. The calls are words filed in the database; no cut-off is given here.

Tests used:
[1] = system: Monocyte; test: Inhibition of BzATP-induced IL18 release from LPS-primed human monocytes by ELISA; type: functional, cell-based
[2] = system: Monocyte; test: Inhibition of BzATP-induced IL1-beta release from LPS-primed human monocytes by ELISA; type: functional, cell-based
[3] = biological target: T1, P2X purinoceptor 7 (Rattus norvegicus, UniProt Q64663); test: Antagonist activity at rat P2X7 receptor transfected in HEK cells assessed as inhibition of benzoyl-ATP-induced changes in plasma membrane pore formation; type: functional, cell-based, HEK293; settings: for Kb: read-out: pA2 (converted)
T1 sequence (Q64663 whole entry): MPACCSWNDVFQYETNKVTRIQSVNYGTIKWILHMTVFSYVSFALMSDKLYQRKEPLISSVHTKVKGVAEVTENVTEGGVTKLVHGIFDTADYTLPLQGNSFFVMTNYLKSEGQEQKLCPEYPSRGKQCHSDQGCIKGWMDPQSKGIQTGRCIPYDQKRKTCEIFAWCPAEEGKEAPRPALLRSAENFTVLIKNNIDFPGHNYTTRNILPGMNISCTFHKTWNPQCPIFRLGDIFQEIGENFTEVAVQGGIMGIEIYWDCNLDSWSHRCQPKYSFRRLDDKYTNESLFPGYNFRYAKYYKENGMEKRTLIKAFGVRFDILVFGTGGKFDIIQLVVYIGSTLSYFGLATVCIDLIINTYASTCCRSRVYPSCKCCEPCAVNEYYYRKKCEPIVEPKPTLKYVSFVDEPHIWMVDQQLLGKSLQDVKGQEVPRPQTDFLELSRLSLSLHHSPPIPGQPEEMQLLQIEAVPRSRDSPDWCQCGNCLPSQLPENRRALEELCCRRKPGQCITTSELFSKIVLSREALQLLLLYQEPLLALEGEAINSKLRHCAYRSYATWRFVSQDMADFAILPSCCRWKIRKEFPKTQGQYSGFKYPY

[4] = biological target: T2, P2X purinoceptor 7 (Homo sapiens, UniProt Q99572); test: Antagonist activity at human P2X7 receptor transfected in THP1 cells assessed as inhibition of benzoyl-ATP-induced changes in plasma membrane pore formation; type: functional, cell-based, THP-1; settings: read-out: pA2 (converted)
T2 sequence (Q99572 whole entry): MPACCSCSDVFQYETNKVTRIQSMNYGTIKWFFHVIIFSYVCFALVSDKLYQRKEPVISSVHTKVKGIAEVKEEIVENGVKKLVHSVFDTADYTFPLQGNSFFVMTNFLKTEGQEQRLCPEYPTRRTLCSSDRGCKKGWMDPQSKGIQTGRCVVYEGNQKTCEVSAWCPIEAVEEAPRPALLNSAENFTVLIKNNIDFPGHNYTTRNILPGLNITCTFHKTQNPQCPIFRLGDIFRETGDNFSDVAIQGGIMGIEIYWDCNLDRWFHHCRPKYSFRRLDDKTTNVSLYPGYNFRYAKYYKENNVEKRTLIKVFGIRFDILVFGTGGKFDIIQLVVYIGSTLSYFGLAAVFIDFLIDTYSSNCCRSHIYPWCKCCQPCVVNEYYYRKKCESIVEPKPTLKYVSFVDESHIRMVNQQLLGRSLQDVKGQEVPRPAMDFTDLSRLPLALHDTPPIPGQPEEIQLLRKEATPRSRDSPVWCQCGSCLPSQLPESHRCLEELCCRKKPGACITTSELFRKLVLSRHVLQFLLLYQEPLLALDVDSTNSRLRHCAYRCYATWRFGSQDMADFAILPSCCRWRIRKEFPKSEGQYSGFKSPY

[5] = species: Rattus norvegicus; test: Activity at rat P2X2/3 heteromeric receptor at 10 uM
[6] = Protein binding in rat plasma; type: ADME, cell-free; settings: read-out: PPB (converted)
[7] = Activity at sigma receptor; set-up: species or system Homo sapiens
[8] = biological target: T3, P2X purinoceptor 3 (Homo sapiens) (UniProt P56373); test: Activity at human P2X3 receptor at 10 uM
T3 sequence (whole entry): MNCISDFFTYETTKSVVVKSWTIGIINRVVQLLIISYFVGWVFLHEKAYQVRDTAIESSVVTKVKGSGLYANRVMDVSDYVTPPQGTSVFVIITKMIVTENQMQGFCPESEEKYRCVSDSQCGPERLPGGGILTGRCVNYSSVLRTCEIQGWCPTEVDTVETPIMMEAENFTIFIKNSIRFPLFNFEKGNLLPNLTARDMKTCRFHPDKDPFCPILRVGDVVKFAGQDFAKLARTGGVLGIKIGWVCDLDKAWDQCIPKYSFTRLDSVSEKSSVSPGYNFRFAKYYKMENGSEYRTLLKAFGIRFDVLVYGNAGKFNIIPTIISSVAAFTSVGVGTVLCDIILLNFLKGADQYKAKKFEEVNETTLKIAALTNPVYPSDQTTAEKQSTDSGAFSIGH

[9] = biological target: T4, P2X purinoceptor 1 (Homo sapiens) (UniProt P51575); test: Activity at human P2X1 receptor at 10 uM
T4 sequence (whole entry): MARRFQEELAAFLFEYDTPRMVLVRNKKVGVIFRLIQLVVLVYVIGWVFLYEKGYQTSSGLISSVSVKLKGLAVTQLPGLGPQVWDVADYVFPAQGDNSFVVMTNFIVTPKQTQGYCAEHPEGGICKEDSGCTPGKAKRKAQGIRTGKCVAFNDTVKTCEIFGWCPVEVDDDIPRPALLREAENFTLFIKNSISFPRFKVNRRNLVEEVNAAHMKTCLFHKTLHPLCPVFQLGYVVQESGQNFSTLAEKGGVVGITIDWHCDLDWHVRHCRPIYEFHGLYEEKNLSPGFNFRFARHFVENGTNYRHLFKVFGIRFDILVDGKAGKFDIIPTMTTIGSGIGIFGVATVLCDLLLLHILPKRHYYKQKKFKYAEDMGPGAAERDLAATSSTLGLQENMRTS

[10] = biological target: Vasopressin V1a receptor (Homo sapiens, UniProt P37288); test: Activity at vasopressin V1A receptor
Vasopressin V1a receptor, sequence (P37288 whole entry): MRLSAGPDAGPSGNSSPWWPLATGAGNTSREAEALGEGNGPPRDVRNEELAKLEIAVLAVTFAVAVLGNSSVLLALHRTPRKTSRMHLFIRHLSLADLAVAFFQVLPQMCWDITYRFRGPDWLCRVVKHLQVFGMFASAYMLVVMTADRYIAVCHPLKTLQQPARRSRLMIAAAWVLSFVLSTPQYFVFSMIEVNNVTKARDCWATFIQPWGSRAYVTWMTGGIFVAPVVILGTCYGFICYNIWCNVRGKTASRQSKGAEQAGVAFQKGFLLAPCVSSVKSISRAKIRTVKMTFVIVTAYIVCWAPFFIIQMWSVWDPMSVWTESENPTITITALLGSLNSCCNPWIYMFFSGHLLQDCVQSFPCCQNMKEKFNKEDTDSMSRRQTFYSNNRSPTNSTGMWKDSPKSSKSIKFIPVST

[11] = biological target: T5, P2X purinoceptor 4 (Homo sapiens) (UniProt Q99571); test: Activity at human P2X4 receptor at 10 uM
T5 sequence (whole entry): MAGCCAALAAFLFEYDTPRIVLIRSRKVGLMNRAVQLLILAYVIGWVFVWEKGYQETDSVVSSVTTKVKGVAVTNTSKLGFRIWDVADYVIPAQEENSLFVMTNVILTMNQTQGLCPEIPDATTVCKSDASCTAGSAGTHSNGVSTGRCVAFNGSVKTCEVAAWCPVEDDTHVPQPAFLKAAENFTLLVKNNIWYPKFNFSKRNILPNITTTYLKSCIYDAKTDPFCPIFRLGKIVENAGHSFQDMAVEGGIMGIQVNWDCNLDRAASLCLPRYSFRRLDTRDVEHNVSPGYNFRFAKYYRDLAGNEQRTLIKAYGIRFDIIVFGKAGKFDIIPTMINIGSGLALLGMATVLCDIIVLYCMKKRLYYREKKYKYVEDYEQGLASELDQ

[12] = biological target: T6, P2X purinoceptor 2 (Rattus norvegicus) (UniProt P49653); test: Activity at rat P2X2 receptor at 10 uM
T6 sequence (whole entry): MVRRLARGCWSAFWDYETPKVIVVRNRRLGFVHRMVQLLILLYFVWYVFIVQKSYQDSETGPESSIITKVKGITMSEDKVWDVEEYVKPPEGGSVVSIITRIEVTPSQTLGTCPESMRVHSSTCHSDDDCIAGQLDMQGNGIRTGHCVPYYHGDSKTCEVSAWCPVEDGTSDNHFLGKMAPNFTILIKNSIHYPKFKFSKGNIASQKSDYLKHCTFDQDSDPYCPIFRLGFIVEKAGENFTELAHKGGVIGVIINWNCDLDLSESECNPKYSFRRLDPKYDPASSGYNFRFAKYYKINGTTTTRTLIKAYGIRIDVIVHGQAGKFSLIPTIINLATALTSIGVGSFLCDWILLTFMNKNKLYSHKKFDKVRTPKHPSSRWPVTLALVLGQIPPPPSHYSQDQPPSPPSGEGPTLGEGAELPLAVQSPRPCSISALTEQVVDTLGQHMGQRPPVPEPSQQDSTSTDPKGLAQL

[13] = biological target: P2X purinoceptor 5 (Homo sapiens) (UniProt Q93086); test: Activity at human P2X5 receptor at 10 uM
P2X purinoceptor 5 (Homo sapiens), sequence (Q93086 whole entry): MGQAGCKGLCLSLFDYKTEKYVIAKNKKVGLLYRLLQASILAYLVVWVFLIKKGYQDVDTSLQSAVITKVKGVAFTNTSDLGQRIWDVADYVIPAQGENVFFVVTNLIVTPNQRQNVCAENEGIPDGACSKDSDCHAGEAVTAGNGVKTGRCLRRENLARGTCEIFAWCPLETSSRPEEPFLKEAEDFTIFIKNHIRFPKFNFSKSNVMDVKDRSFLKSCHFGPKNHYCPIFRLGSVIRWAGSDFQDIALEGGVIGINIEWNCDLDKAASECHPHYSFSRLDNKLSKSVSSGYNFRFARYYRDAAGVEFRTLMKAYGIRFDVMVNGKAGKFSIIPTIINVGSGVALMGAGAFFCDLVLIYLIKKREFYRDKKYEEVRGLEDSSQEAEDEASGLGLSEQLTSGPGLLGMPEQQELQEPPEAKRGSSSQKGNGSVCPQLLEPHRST

[14] = Half life in Sprague-Dawley rat; type: ADME, organism-based; settings: in vivo
[15] = Bioavailability in Sprague-Dawley rat; type: ADME, organism-based; settings: in vivo
[16] = system: Hepatocyte; test: Intrinsic clearance in human hepatocytes; type: ADME, cell-based, Liver
[17] = Volume of distribution at steady state in Sprague-Dawley rat; type: ADME, organism-based; settings: in vivo, read-out: Vdss
[18] = Clearance in Sprague-Dawley rat; type: ADME, organism-based; settings: in vivo
[19] = system: Hepatocyte; test: Intrinsic clearance in rat hepatocytes; type: ADME, cell-based, Liver

| Compound | IC50 ([3]; read-out: Log IC50 (converted)) [nM] | Kb [4] [nM] | other results |
| --- | --- | --- | --- |
| Cc1oc(CN2CCNCC2)cc1C(=O)NCC12CC3CC(CC(C3)C1)C2 | > 10000 | > 10000 | Activity [1]: Active; Activity [2]: inactive |
| O=C(NCC12CC3CC(CC(C3)C1)C2)c1cc(OC2CCNCC2)ccc1Cl | 631 | 15.8 | – |
| O=C(NCC12CC3CC(CC(C3)C1)C2)c1cc(CC2CCCNC2)ccc1Cl (racemic) | – | 6.31 | IC50 ([3]; read-out: IC50): 30 nM |
| O=C(NCC12CC3CC(CC(C3)C1)C2)c1cc(O[C@@H]2CCCNC2)ccc1Cl | 316 | 6.31 | – |
| O=C(NCC12CC3CC(CC(C3)C1)C2)c1cccc(CN2CCCCC2)c1Cl | > 10000 | 200 | – |
| O=C(NCC12CC3CC(CC(C3)C1)C2)c1cc(O[C@H]2CCCNC2)ccc1Cl | 100 | 10 | – |
| O=C(NCC12CC3CC(CC(C3)C1)C2)c1cc(CN2CC3CNCC(C2)O3)ccc1Cl | – | – | Kb [3]: 25.1 nM |
| Cc1sc(CN2CCNCC2)cc1C(=O)NCC12CC3CC(CC(C3)C1)C2 | > 10000 | 316 | – |
| O=C(NCC12CC3CC(CC(C3)C1)C2)c1nc(OC2CCCNC2)ncc1Cl (centres undefined) | 316 | 251 | – |
| O=C(NCC12CC3CC(CC(C3)C1)C2)c1cc(NC2CCCNC2)ccc1Cl (racemic) | – | 5.01 | IC50 ([3]; read-out: IC50): 30 nM |
| Cc1ccc(C(=O)N2CC3CNCC(C2)O3)cc1C(=O)NCC12CC3CC(CC(C3)C1)C2 | – | – | Activity [5]: inactive; fraction unbound [6]: 0.34; IC50 [7]: 4000 nM; Activity [8]: inactive; Activity [9]: inactive; Kb [3]: 15.8 nM; IC50 [10]: 7000 nM; Activity [11]: inactive; Activity [12]: inactive; Activity [13]: inactive |
| O=C(NCC12CC3CC(CC(C3)C1)C2)c1ccc(CN2CCCCC2)cc1Cl | 794 | 126 | – |
| O=C(NCC12CC3CC(CC(C3)C1)C2)c1cc(NC2CCNCC2)ccc1Cl | 501 | 25.1 | – |
| O=C(NCC12CC3CC(CC(C3)C1)C2)c1cc(CN2CCNCC2)ccc1Cl | 398 | 10 | half-life [14]: 5.2 h; bioavailability [15]: 79%; CL [16]: < 3 µL/min; IC50 [1]: 39.8 nM; IC50 [2]: 79.4 nM; Vd [17]: 5.31 L/kg; clearance [18]: 13 mL/min/kg; CL [19]: < 5 µL/min |
| O=C(NCC12CC3CC(CC(C3)C1)C2)c1cc(CN2C[C@@H]3C[C@H]2CN3)ccc1Cl | 251 | 5.01 | – |
| O=C(NCC12CC3CC(CC(C3)C1)C2)c1cc(N2CCNCC2)ccc1Cl | 1260 | 31.6 | – |
| Cc1nnc(OC2CCNCC2)cc1C(=O)NCC12CC3CC(CC(C3)C1)C2 | 794 | 1580 | – |
| O=C(NCC12CC3CC(CC(C3)C1)C2)c1c(Cl)cccc1OC1CCNCC1 | > 10000 | > 10000 | – |
| O=C(NCC12CC3CC(CC(C3)C1)C2)c1cc(C(=O)N2CC3CNCC(C2)O3)ccc1Cl | – | – | Activity [5]: inactive; IC50 [7]: 4000 nM; Activity [8]: inactive; IC50 [10]: 7000 nM; Activity [11]: inactive; Activity [12]: inactive; Activity [13]: inactive |
| O=C(NCC12CC3CC(CC(C3)C1)C2)c1cc(CC2CCNCC2)ccc1Cl | 63.1 | 15.8 | – |
| O=C(NCC12CC3CC(CC(C3)C1)C2)c1cc(C2CCNCC2)ccc1Cl | 316 | 15.8 | – |
